Species on record: Rattus norvegicus
Experiment: Open TG-GATES - Regimen: Single
Type: toxicity, organism-based, Sprague-Dawley
Set-up: regimen Single, gender Male, age 6 weeks
Conditions: in vivo, ip, 0.001 mg/kg, route intraperitoneal injection, dose 1 ug/Kg, dose level Low; for APTT / Bas / Eos / Fbg / Hb / Ht / Lym / MCH / MCHC / MCV / Mono / Neu / PT / Plat / RBC / Ret / WBC: tissue Blood; for KIDNEY_L / KIDNEY_R / KIDNEY_TOTAL: tissue Kidney; for LIVER: tissue Liver; for A/G / ALP / ALT / AST / BUN / CRE / Ca / Cl / DBIL / GLC / IP / K / LDH / Na / PL / RALB / TBIL / TC / TG / TP / gamma-GTP: tissue Plasma

## H-KGDRLS-OH [TNF-ALPHA]
3 h
  TERMINAL_BW: 199 g
  APTT: 17.8 s
  Bas: 0.4%
  Eos: 0.4%
  Fbg: 267.2 mg/dL
  Hb: 12.9 g/dL
  Ht: 39.8%
  Lym: 65.8%
  MCH: 21.4 pg
  MCHC: 32.4%
  MCV: 65.8 fL
  Mono: 4.2%
  Neu: 28%
  PT: 15.4 s
  Plat: 115.7 x10_4/uL
  RBC: 605.4 x10_4/ul
  Ret: 9.7%
  WBC: 95.8 x10_2/uL
  KIDNEY_L: 0.9 g
  KIDNEY_R: 0.9 g
  KIDNEY_TOTAL: 1.8 g
  LIVER: 9.3 g
  A/G: 0.9
  ALP: 1460 IU/L
  ALT: 47.8 IU/L
  AST: 77.2 IU/L
  BUN: 10.4 mg/dL
  CRE: 0.2 mg/dL
  Ca: 10.8 mg/dL
  Cl: 105.6 meq/L
  DBIL: 0.01 mg/dL
  GLC: 177.2 mg/dL
  IP: 9.8 mg/dL
  K: 4.1 meq/L
  LDH: 69.6 IU/L
  Na: 142 meq/L
  PL: 154.4 mg/dL
  RALB: 2.4 g/dL
  TBIL: 0.056 mg/dL
  TC: 83 mg/dL
  TG: 71.6 mg/dL
  TP: 5.2 g/dL
  gamma-GTP: 1.2 IU/L
6 h
  TERMINAL_BW: 195 g
  APTT: 16.4 s
  Bas: 0%
  Eos: 0.2%
  Fbg: 310.6 mg/dL
  Hb: 12.9 g/dL
  Ht: 39.3%
  Lym: 53.8%
  MCH: 21.1 pg
  MCHC: 32.8%
  MCV: 64.3 fL
  Mono: 2%
  Neu: 43.2%
  PT: 15.3 s
  Plat: 115.3 x10_4/uL
  RBC: 612.4 x10_4/ul
  Ret: 8.4%
  WBC: 82.5 x10_2/uL
  KIDNEY_L: 0.8 g
  KIDNEY_R: 0.9 g
  KIDNEY_TOTAL: 1.7 g
  LIVER: 8.3 g
  A/G: 0.9
  ALP: 1365.6 IU/L
  ALT: 36.4 IU/L
  AST: 69 IU/L
  BUN: 7.8 mg/dL
  CRE: 0.2 mg/dL
  Ca: 10.8 mg/dL
  Cl: 105.2 meq/L
  DBIL: 0.006 mg/dL
  GLC: 171.4 mg/dL
  IP: 10 mg/dL
  K: 3.7 meq/L
  LDH: 69.2 IU/L
  Na: 143.4 meq/L
  PL: 139.8 mg/dL
  RALB: 2.5 g/dL
  TBIL: 0.06 mg/dL
  TC: 80.4 mg/dL
  TG: 31.6 mg/dL
  TP: 5.3 g/dL
  gamma-GTP: 1.2 IU/L
9 h
  TERMINAL_BW: 195.3 g
  APTT: 16.7 s
  Bas: 0%
  Eos: 0.2%
  Fbg: 364.8 mg/dL
  Hb: 13 g/dL
  Ht: 40.1%
  Lym: 68.2%
  MCH: 21.4 pg
  MCHC: 32.4%
  MCV: 66.1 fL
  Mono: 2.2%
  Neu: 28.6%
  PT: 15.3 s
  Plat: 97.2 x10_4/uL
  RBC: 607 x10_4/ul
  Ret: 8.6%
  WBC: 61.4 x10_2/uL
  KIDNEY_L: 0.9 g
  KIDNEY_R: 0.9 g
  KIDNEY_TOTAL: 1.8 g
  LIVER: 8.4 g
  A/G: 0.9
  ALP: 1554.2 IU/L
  ALT: 38.8 IU/L
  AST: 71.4 IU/L
  BUN: 8.2 mg/dL
  CRE: 0.2 mg/dL
  Ca: 10.6 mg/dL
  Cl: 105.2 meq/L
  DBIL: 0.008 mg/dL
  GLC: 169.6 mg/dL
  IP: 10.5 mg/dL
  K: 3.7 meq/L
  LDH: 47.8 IU/L
  Na: 142.4 meq/L
  PL: 154.2 mg/dL
  RALB: 2.5 g/dL
  TBIL: 0.066 mg/dL
  TC: 84 mg/dL
  TG: 39.6 mg/dL
  TP: 5.4 g/dL
  gamma-GTP: 1 IU/L
24 h
  TERMINAL_BW: 211.6 g
  APTT: 17.8 s
  Bas: 0%
  Eos: 1%
  Fbg: 353.2 mg/dL
  Hb: 13.1 g/dL
  Ht: 40.4%
  Lym: 79.4%
  MCH: 21.5 pg
  MCHC: 32.4%
  MCV: 66.4 fL
  Mono: 3%
  Neu: 15.8%
  PT: 15.4 s
  Plat: 108.1 x10_4/uL
  RBC: 608.8 x10_4/ul
  Ret: 8.2%
  WBC: 71.1 x10_2/uL
  KIDNEY_L: 0.9 g
  KIDNEY_R: 0.9 g
  KIDNEY_TOTAL: 1.8 g
  LIVER: 10.2 g
  A/G: 0.8
  ALP: 1816.8 IU/L
  ALT: 43.2 IU/L
  AST: 70.8 IU/L
  BUN: 15.4 mg/dL
  CRE: 0.2 mg/dL
  Ca: 11.3 mg/dL
  Cl: 106 meq/L
  DBIL: 0.008 mg/dL
  GLC: 185.4 mg/dL
  IP: 8.7 mg/dL
  K: 4.5 meq/L
  LDH: 86.4 IU/L
  Na: 142.2 meq/L
  PL: 158.6 mg/dL
  RALB: 2.7 g/dL
  TBIL: 0.042 mg/dL
  TC: 81.8 mg/dL
  TG: 80.2 mg/dL
  TP: 5.8 g/dL
  gamma-GTP: 1 IU/L
